The source of these data is patent US20260001881A1, “COMPOUNDS AND METHODS FOR MODULATION OF G-PROTEIN-COUPLED RECEPTORS” (PRIMETIME LIFE SCIENCES, LLC, priority 2018, published 2026).

Some results are limits rather than exact numbers.

A short description of data set [1]: Stability of prodrugs in mouse plasma after 2 hours of treatment. The class given is in vitro ADME. The conditions noted are these: 37° C.
For a further data set, the target named is hA1AR (Homo sapiens (Human), UniProt P30542). Kind of data set: Binding affinities for Adenosine receptors (hA1AR). The note with it: CHO cells stably expressing recombinant hA1AR.
The target of a further data set is hA3AR (Homo sapiens (Human), UniProt P0DMS8). As to the kind of experiment: Binding affinities for Adenosine receptors (hA3AR). The note with it: CHO cells stably expressing recombinant hA3AR.
The target of a further data set is hA2AAR (Homo sapiens (Human), UniProt P29274). As to the kind of experiment: Binding affinities for Adenosine receptors (hA2AAR). The note with it: HEK 293 cells stably expressing hA2AAR.
Sequence of hA2AAR (P29274 whole entry): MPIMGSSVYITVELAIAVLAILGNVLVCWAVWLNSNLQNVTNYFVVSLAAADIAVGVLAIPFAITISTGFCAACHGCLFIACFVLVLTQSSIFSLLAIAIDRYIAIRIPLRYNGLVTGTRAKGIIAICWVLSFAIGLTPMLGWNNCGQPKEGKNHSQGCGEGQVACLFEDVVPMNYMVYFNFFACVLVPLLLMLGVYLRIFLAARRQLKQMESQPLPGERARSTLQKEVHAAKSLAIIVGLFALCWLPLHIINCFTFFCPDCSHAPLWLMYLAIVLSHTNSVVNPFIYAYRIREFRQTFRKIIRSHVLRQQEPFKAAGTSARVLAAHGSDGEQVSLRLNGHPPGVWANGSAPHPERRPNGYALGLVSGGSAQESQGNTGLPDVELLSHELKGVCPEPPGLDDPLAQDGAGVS

Sequence of hA1AR (P30542 whole entry): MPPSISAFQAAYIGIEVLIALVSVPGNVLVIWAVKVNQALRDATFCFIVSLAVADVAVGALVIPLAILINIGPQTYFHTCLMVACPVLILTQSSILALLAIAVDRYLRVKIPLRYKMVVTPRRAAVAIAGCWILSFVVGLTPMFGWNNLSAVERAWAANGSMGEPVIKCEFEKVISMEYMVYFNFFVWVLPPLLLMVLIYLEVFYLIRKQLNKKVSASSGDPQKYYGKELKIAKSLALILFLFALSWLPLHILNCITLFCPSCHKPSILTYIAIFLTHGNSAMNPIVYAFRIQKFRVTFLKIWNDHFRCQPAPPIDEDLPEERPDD
Sequence of hA3AR (P0DMS8 whole entry): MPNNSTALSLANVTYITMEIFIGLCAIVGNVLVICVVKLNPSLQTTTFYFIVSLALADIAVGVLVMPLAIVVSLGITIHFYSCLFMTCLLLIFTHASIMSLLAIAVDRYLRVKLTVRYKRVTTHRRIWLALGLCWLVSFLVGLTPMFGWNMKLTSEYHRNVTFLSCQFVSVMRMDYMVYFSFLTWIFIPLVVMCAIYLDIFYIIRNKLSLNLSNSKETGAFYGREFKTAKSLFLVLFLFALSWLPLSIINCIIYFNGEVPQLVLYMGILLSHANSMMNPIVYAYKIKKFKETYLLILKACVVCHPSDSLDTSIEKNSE

As for `CC(C)[C@H](N)C(=O)OC1C(OC(=O)[C@@H](N)C(C)C)[C@@H]2C[C@@H]2C1n1cnc2c(NC(C3CC3)C3CC3)nc(Cl)nc21.Cl.Cl` (stereo partly drawn) [Compound T1.1, (1R,5S)-4-(2-chloro-6-((dicyclopropylmethyl)amino)-9H-purin-9-yl)bicyclo[3.1.0]hexane-2,3-diyl (2S,2'S)-bis(2-amino-3-methylbutanoate), dihydrochloride salt], in data set [1], the “Parent prodrug remained after 2 hours” value is 11%.
As to `CC(C)[C@H](N)C(=O)N(c1nc(Cl)nc2c1ncn2[C@H]1[C@H](O)[C@H](O)[C@@H]2C[C@@H]21)C(C1CC1)C1CC1` [Compound T3.1, (S)-2-amino-N-(2-chloro-9-((1S,2R,3S,4R,5R)-3,4-dihydroxybicyclo[3.1.0]hexan-2-yl)-9H-purin-6-yl)-N-(dicyclopropylmethyl)-3-methylbutanamide], the “Parent prodrug remained after 2 hours” value in data set [1] was determined as 14%.
On the same count and under the same terms, under `CC(C)[C@H](N)C(=O)OC[C@@]12C[C@@H]1[C@@H](n1cnc3c(NC(C4CC4)C4CC4)nc(Cl)nc31)[C@H](O)[C@@H]2O` [Compound T4.1, ((1R,2R,3S,4R,5S)-4-(2-chloro-6-((dicyclopropylmethyl)amino)-9H-purin-9-yl)-2,3-dihydroxybicyclo[3.1.0]hexan-1-yl)methyl L-valinate] stands 21%.
In the case of `CNC(=O)[C@@]12C[C@@H]1[C@@H](n1cnc3c(NCc4cccc(Cl)c4)nc(C#Cc4ccc(F)c(F)c4)nc31)[C@H](OC(=O)[C@@H](N)C(C)C)[C@@H]2OC(=O)[C@@H](N)C(C)C` [Compound T8.1, (1S,2R,3S,4R,5S)-4-(6-((3-chlorobenzyl)amino)-2-((3,4-difluorophenyl)ethynyl)-9H-purin-9-yl)-1-(methylcarbamoyl)bicyclo[3.1.0]hexane-2,3-diyl (2S,2'S)-bis(2-amino-3-methylbutanoate)], the “Parent prodrug remained after 2 hours” value in data set [1] was 9%.
Still for that read-out and setting: then `CNC(=O)[C@@]12C[C@@H]1[C@@H](n1cnc3c(NCc4cccc(Cl)c4)nc(C#Cc4ccc(F)c(F)c4)nc31)[C@@H]1OC3(CCN(C)CC3)O[C@@H]12` [Compound T9.8, (3aR,3bS,4aS,5R,5aS)-5-(6-((3-chlorobenzyl)amino)-2-((3,4-difluorophenyl)ethynyl)-9H-purin-9-yl)-N,1′-dimethyltetrahydrospiro[cyclopropa[3,4]cyclopenta[1,2-d][1,3]dioxole-2,4′-piperidine]-3b(3aH)-carboxamide], with 17%.
For `C[C@@H]1CC(n2cnc3c(NC(C4CC4)C4CC4)nc(Cl)nc32)C(O)C1O` (some centres unmarked) [Compound T13.1], the Ki (commonly a dissociation constant, usually derived from enzyme kinetics or from competition with a known ligand) was below 1 µM on hA1AR, 1 to 10 µM at hA3AR and above 10 µM at hA2AAR.
As for `C[C@@H]1CC(n2cnc3c(NC4C5(CC5)C45CC5)nc(Cl)nc32)C(O)C1O` (some centres unmarked) [Compound T13.2], the figures for the Ki at hA1AR, at hA3AR and on hA2AAR were below 1 µM, above 10 µM and 1 to 10 µM, respectively.
For `C[C@@H]1CC(n2cnc3c(NC(C4CCC4)C4CCC4)nc(Cl)nc32)C(O)C1O` (some centres unmarked) [Compound T13.3], the Ki at hA1AR was below 1 µM; on hA3AR, above 10 µM; at hA2AAR it was above 10 µM.
In the case of `C[C@@H]1CC(n2cnc3c(NC(C4CC4)C4CC4)ncnc32)C(O)C1O` (some centres unmarked) [Compound T13.4], the Ki is 1 to 10 µM at hA1AR, above 10 µM at hA3AR and 1 to 10 µM on hA2AAR.
As to `C[C@@H]1CC(n2cnc3c(NC4C5(CC5)C45CC5)ncnc32)C(O)C1O` (some centres unmarked) [Compound T13.5], the inhibition constant (Ki) on hA1AR, on hA3AR and at hA2AAR was above 10 µM each time.
On to `C[C@@H]1CC(n2cnc3c(NC(C4CCC4)C4CCC4)ncnc32)C(O)C1O` (some centres unmarked) [Compound T13.6], for which the Ki on hA1AR is 1 to 10 µM; at hA3AR, above 10 µM; on hA2AAR, 1 to 10 µM.
Take `OC[C@H]1O[C@@H](n2cnc3c(NC(C4CC4)C4CC4)nc(Cl)nc32)[C@@H](O)C1O` (some centres unmarked) [Compound T14.1]: the values for the Ki on hA1AR, at hA3AR and on hA2AAR were 1 to 10 µM, above 10 µM and 1 to 10 µM, respectively.
With `OC[C@H]1O[C@@H](n2cnc3c(NC4C5(CC5)C45CC5)nc(Cl)nc32)[C@@H](O)C1O` (some centres unmarked) [Compound T14.2], the Ki on hA1AR is above 10 µM; at hA3AR, above 10 µM; on hA2AAR, 1 to 10 µM.
As for `OC[C@H]1O[C@@H](n2cnc3c(NC(C4CCC4)C4CCC4)nc(Cl)nc32)[C@@H](O)C1O` (some centres unmarked) [Compound T14.3], the inhibition constant Ki was above 10 µM on hA1AR, below 1 µM on hA3AR and 1 to 10 µM at hA2AAR.
For the compound `OC[C@H]1O[C@@H](n2cnc3c(NC(C4CC4)C4CC4)ncnc32)[C@@H](O)C1O` (some centres unmarked) [Compound T14.4], the results for the Ki on hA1AR, at hA3AR and at hA2AAR were above 10 µM, 1 to 10 µM and 1 to 10 µM, respectively.
Consider `OC[C@H]1O[C@@H](n2cnc3c(NC4C5(CC5)C45CC5)ncnc32)[C@@H](O)C1O` (some centres unmarked) [Compound T14.5], for which the inhibitory constant (Ki) was 1 to 10 µM on hA1AR, above 10 µM on hA3AR and above 10 µM on hA2AAR.
In the case of `OC[C@H]1O[C@@H](n2cnc3c(NC(C4CCC4)C4CCC4)ncnc32)[C@@H](O)C1O` (some centres unmarked) [Compound T14.6], the Ki on hA1AR, on hA3AR and at hA2AAR was 1 to 10 µM each time.
